For series [1], the system named is alfa smooth muscle actin (αSMA) gene expression in human stellate cells (HSCs). As to the kind of experiment: Anti-fibrotic activity in human hepatic stellate cells (TGF-β-induced αSMA gene expression). As to conditions: primary human HSCs; 0.0001-1 μM, TGF-β 0.2 ng/mL, forskolin 1 μM, 24 hours. Type of series: cell-based. The protocol: The effect on human stellate cells (HSCs) activation was evaluated by gene expression of alfa smooth muscle actin (αSMA) induced by TGF-β.
Primary HSCs (ScienCell) were suspended in serum-free SteCM medium (ScienCell) and seeded on Poly-D-Lysine-coated 96 well plates as 2.5×10^3 cells/100 uL/well. Six hours after the seeding, HSCs were treated with Compound A (0, 0.0001, 0.001, 0.01, 0.1, and 1 μM), TGF-β (0.2 ng/mL) and forskolin (1 μM) for 24 hours. After the 24-hours incubation, total RNA was extracted from cell lysate using RNeasy 96 Kit (QIAGEN 74182). cDNA was amplified using High-Capacity cDNA Reverse Transcription Kit (ABI 4368813), and target gene mRNA was measured using Taqman PCR. The target gene expression level was normalized by GAPDH. The experiment was repeated 5 times.

A short description of series [2]: Phase 1 clinical studies (single rising dose and multiple rising dose). It is filed as in vivo, humans. From the text: Compound A differs from other development candidates intended for the treatment of NAFLD/NASH in that it exerts its effects via anti-inflammatory, anti-fibrotic and anti-steatotic mode of action. […] It is furthermore believed that all of these effects observed in in vitro and animal experiments will translate in corresponding effects in the clinical setting in humans.

As to `CCOc1cc2c(cc1OC)C(c1ccc(=O)n(C)c1)=N[C@@H]1CC[C@@H](O)C[C@H]21` [Compound A, 5-((2R,4aR,10bR)-9-Ethoxy-2-hydroxy-8-methoxy-1,2,3,4,4a,10b-hexahydro-phenanthridin-6-yl)-1-methyl-1H-pyridin-2-one], the “TGF-β-induced αSMA gene expression in HSCs” value in series [1] is given as “dose-dependently suppressed”. In series [2] (Phase 1, single dose 0.05 to 0.85 mg, multiple dose 0.05 to 0.8 mg 7 days, 0.35 and 0.8 mg up to 14 days), the “PDE4 inhibitor specific adverse events (diarrhea, nausea)” value is “no PDE4 inhibitor specific adverse events”. Moreover, the “safety and pharmacokinetic profile” value in series [2] (Phase 1 single rising dose and multiple rising dose studies) is on record as “very favorable”.
